Measured values: paper PMC3538380 (Stem cells (Dayton, Ohio), 2013)
pIC50: −log10 of the molar value.

What was measured:
[1] = biological target: purified GAPDH enzyme from rabbit muscle (Oryctolagus cuniculus, UniProt P46406); test: GAPDH enzymatic assay, NADH fluorescence; assay type: biochemical
GAPDH in GSC11 cells = GAPDH in GSC11 cells (Homo sapiens, UniProt P04406); test: GAPDH activity in lysate of treated cells, NADH fluorescence; assay type: cell-based
Sequence of GAPDH in GSC11 cells (P04406 2-335): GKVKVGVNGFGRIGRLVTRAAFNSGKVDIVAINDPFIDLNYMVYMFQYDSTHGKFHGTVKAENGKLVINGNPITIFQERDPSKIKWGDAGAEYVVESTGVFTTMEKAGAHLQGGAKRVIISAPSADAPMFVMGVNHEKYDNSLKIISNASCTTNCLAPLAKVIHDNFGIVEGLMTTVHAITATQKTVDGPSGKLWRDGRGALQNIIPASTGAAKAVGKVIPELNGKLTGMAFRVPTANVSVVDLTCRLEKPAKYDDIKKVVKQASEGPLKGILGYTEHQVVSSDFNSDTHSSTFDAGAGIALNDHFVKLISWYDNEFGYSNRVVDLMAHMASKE

Sequence of purified GAPDH enzyme from rabbit muscle (P46406 whole entry): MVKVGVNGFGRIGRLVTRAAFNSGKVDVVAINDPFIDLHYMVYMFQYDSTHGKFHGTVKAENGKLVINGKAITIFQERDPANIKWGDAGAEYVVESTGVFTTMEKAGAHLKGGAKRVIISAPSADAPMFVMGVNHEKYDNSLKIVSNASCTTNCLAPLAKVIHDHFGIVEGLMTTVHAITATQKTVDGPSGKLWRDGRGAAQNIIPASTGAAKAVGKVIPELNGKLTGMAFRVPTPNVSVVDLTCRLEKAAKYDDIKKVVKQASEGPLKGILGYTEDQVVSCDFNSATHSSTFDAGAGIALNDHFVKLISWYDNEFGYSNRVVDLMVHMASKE

Row | inhibition at 10 µM (GAPDH in GSC11 cells; read-out: % inhibition at 10 μM) | Compound | pIC50 [1] | inhibition at 200 µM (GAPDH in GSC11 cells; read-out: % inhibition at 200 μM)
1 |  | O=NN(CCCl)C(=O)NCCCl [BCNU] | ~3.70 | ~60%
2 | ~60% | CCCOC(=O)C(=O)CBr [3-BrOP, 3-bromo-2-oxopropionate-1-propyl ester] | ~5.00 | 
